Data from ChEMBL document CHEMBL3608278 (J Med Chem, 2015).

How the values were obtained:
[1] = target: T1, Potassium voltage-gated channel subfamily A member 3 (Homo sapiens, UniProt P22001); test: cell-based; parameters: species or system Blood
[2] = target: T1, Potassium voltage-gated channel subfamily A member 3; assay type: cell-based, CHO-K1
[3] = target: T1, Potassium voltage-gated channel subfamily A member 3; parameters: species or system Blood

T1 sequence (P22001 whole entry): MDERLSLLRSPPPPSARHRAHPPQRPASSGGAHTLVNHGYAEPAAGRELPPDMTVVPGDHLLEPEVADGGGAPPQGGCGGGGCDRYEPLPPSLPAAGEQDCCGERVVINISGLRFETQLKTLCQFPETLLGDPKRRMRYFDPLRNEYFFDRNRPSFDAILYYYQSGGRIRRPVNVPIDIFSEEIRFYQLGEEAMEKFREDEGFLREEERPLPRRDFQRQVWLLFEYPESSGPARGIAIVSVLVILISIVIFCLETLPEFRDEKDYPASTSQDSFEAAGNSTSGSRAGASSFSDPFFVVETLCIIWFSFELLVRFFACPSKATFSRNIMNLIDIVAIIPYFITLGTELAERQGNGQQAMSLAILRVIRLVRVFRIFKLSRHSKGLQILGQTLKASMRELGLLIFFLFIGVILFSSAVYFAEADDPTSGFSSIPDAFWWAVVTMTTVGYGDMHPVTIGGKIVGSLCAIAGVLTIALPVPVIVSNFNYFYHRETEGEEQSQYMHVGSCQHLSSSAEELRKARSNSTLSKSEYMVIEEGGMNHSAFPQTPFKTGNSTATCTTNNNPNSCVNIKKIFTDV

| SMILES | IC50 [1] [nM] | IC50 [2] [nM] | IC50 [3] [nM] |
| --- | --- | --- | --- |
| CC[C@H](C)[C@@H]1NC(=O)[C@@H](NC(=O)[C@H](CO)NC(=O)[C@@H](N)CCCCN)CSSC[C@@H](C(=O)O)NC(=O)[C@H]([C@@H](C)O)NC(=O)CNC(=O)[C@@H]2CSSC[C@@H]3NC(=O)[C@H](CCC(N)=O)NC(=O)[C@H](Cc4ccccc4)NC(=O)[C@H](C)NC(=O)[C@H]([C@@H](C)O)NC(=O)[C@H](CSSC[C@H](NC(=O)[C@H](Cc4ccccc4)NC(=O)[C@H](CO)NC(=O)[C@H](CC(C)C)NC(=O)[C@H](CCCNC(=N)N)NC(=O)[C@H](Cc4ccc(O)cc4)NC(=O)[C@H](CCCCN)NC(=O)[C@H](CCSC)NC(=O)[C@H](CO)NC(=O)[C@H](Cc4cnc[nH]4)NC(=O)[C@H](CCCCN)NC3=O)C(=O)N[C@@H](CCCNC(=N)N)C(=O)N[C@@H](CCCCN)C(=O)N[C@@H]([C@@H](C)O)C(=O)N2)NC(=O)[C@H](CCCNC(=N)N)NC(=O)[C@H](CO)NC(=O)[C@H](CCCCN)NC(=O)[C@@H]2CCCN2C(=O)[C@H]([C@@H](C)CC)NC(=O)[C@H]([C@@H](C)O)NC(=O)[C@H](CC(=O)O)NC1=O | 0.036 | 0.154 | 0.073 |
| CC[C@H](C)[C@@H]1NC(=O)[C@@H](NC(=O)[C@H](CO)NC(=O)[C@@H](N)CCCNC(=N)N)CSSC[C@@H](C(=O)O)NC(=O)[C@H]([C@@H](C)O)NC(=O)CNC(=O)[C@@H]2CSSC[C@@H]3NC(=O)[C@H](CCC(N)=O)NC(=O)[C@H](Cc4ccccc4)NC(=O)[C@H](C)NC(=O)[C@H]([C@@H](C)O)NC(=O)[C@H](CSSC[C@H](NC(=O)[C@H](Cc4ccccc4)NC(=O)[C@H](CO)NC(=O)[C@H](CC(C)C)NC(=O)[C@H](CCCNC(=N)N)NC(=O)[C@H](Cc4ccc(O)cc4)NC(=O)[C@H](CCCCN)NC(=O)[C@H](CCSC)NC(=O)[C@H](CO)NC(=O)[C@H](Cc4cnc[nH]4)NC(=O)[C@H](CCCCN)NC3=O)C(=O)N[C@@H](CCCNC(=N)N)C(=O)N[C@@H](CCCCN)C(=O)N[C@@H]([C@@H](C)O)C(=O)N2)NC(=O)[C@H](CCCNC(=N)N)NC(=O)[C@H](CO)NC(=O)[C@H](CCCCN)NC(=O)[C@@H]2CCCN2C(=O)[C@H]([C@@H](C)CC)NC(=O)[C@H]([C@@H](C)O)NC(=O)[C@H](CCCCN)NC1=O | > 100 | > 3.33 | > 100 |
| CC[C@H](C)[C@@H]1NC(=O)[C@@H](NC(=O)[C@H](CO)NC(=O)[C@@H](N)CCCNC(=N)N)CSSC[C@@H](C(=O)O)NC(=O)[C@H](C)NC(=O)CNC(=O)[C@@H]2CSSC[C@@H]3NC(=O)[C@H](CCC(N)=O)NC(=O)[C@H](Cc4ccccc4)NC(=O)[C@H](C)NC(=O)[C@H]([C@@H](C)O)NC(=O)[C@H](CSSC[C@H](NC(=O)[C@H](Cc4ccccc4)NC(=O)[C@H](CO)NC(=O)[C@H](CC(C)C)NC(=O)[C@H](CCCNC(=N)N)NC(=O)[C@H](Cc4ccc(O)cc4)NC(=O)[C@H](CCCCN)NC(=O)[C@H](CCSC)NC(=O)[C@H](CO)NC(=O)[C@H](Cc4cnc[nH]4)NC(=O)[C@H](CCCCN)NC3=O)C(=O)N[C@@H](CCCNC(=N)N)C(=O)N[C@@H](CCCCN)C(=O)N[C@@H]([C@@H](C)O)C(=O)N2)NC(=O)[C@H](CCCNC(=N)N)NC(=O)[C@H](CO)NC(=O)[C@H](CCCCN)NC(=O)[C@@H]2CCCN2C(=O)[C@H]([C@@H](C)CC)NC(=O)[C@H]([C@@H](C)O)NC(=O)[C@H](CC(=O)O)NC1=O | 0.053 | 0.133 | 0.083 |
| CC[C@H](C)[C@@H]1NC(=O)[C@@H](NC(=O)[C@H](CO)NC(=O)[C@@H](N)CCCNC(=N)N)CSSC[C@@H](C(=O)O)NC(=O)[C@H]([C@@H](C)O)NC(=O)CNC(=O)[C@@H]2CSSC[C@@H]3NC(=O)[C@H](CCC(N)=O)NC(=O)[C@H](Cc4ccccc4)NC(=O)[C@H](C)NC(=O)[C@H]([C@@H](C)O)NC(=O)[C@H](CSSC[C@H](NC(=O)[C@H](Cc4ccccc4)NC(=O)[C@H](CO)NC(=O)[C@H](CC(C)C)NC(=O)[C@H](CCCNC(=N)N)NC(=O)[C@H](Cc4ccc(O)cc4)NC(=O)[C@H](CCCCN)NC(=O)[C@H](Cc4cccc5ccccc45)NC(=O)[C@H](CO)NC(=O)[C@H](Cc4cnc[nH]4)NC(=O)[C@H](CCCCN)NC3=O)C(=O)N[C@@H](CCCNC(=N)N)C(=O)N[C@@H](CCCCN)C(=O)N[C@@H]([C@@H](C)O)C(=O)N2)NC(=O)[C@H](CCCNC(=N)N)NC(=O)[C@H](CO)NC(=O)[C@H](CCCCN)NC(=O)[C@@H]2CCCN2C(=O)[C@H]([C@@H](C)CC)NC(=O)[C@H]([C@@H](C)O)NC(=O)[C@H](CC(=O)O)NC1=O | 6.59 | 0.853 | 8.13 |
| CC[C@H](C)[C@@H]1NC(=O)[C@@H](NC(=O)[C@H](CO)NC(=O)[C@@H](N)CCCNC(=N)N)CSSC[C@@H](C(=O)O)NC(=O)[C@H]([C@@H](C)O)NC(=O)CNC(=O)[C@@H]2CSSC[C@@H]3NC(=O)[C@H](CCC(N)=O)NC(=O)[C@H](Cc4ccccc4)NC(=O)[C@H](C)NC(=O)[C@H]([C@@H](C)O)NC(=O)[C@H](CSSC[C@H](NC(=O)[C@H](Cc4ccccc4)NC(=O)[C@H](CO)NC(=O)[C@H](CC(C)C)NC(=O)[C@H](CCCNC(=N)N)NC(=O)[C@H](Cc4ccc(O)cc4)NC(=O)[C@H](CCCCN)NC(=O)[C@H](CCSC)NC(=O)[C@H](CO)NC(=O)[C@H](Cc4cnc[nH]4)NC(=O)[C@H](CCCCN)NC3=O)C(=O)N[C@@H](CCCNC(=N)N)C(=O)N[C@@H](CCCCN)C(=O)N[C@@H]([C@@H](C)O)C(=O)N2)NC(=O)[C@H](CCCNC(=N)N)NC(=O)[C@H](CO)NC(=O)[C@H](CCC(=O)O)NC(=O)[C@@H]2CCCN2C(=O)[C@H]([C@@H](C)CC)NC(=O)[C@H]([C@@H](C)O)NC(=O)[C@H](CC(=O)O)NC1=O | 0.037 | 0.146 | 0.056 |
| CC[C@H](C)[C@@H]1NC(=O)[C@@H](NC(=O)[C@H](CO)NC(=O)[C@@H](N)CCCNC(=N)N)CSSC[C@@H](C(=O)O)NC(=O)[C@H]([C@@H](C)O)NC(=O)CNC(=O)[C@@H]2CSSC[C@@H]3NC(=O)[C@H](CCC(N)=O)NC(=O)[C@H](Cc4ccccc4)NC(=O)[C@H](C)NC(=O)[C@H]([C@@H](C)O)NC(=O)[C@H](CSSC[C@H](NC(=O)[C@H](Cc4ccccc4)NC(=O)[C@H](CO)NC(=O)[C@H](CC(C)C)NC(=O)[C@H](CCCNC(=N)N)NC(=O)[C@H](Cc4ccc(O)cc4)NC(=O)[C@H](CCCCN)NC(=O)[C@H](CCSC)NC(=O)[C@H](CO)NC(=O)[C@H](Cc4cnc[nH]4)NC(=O)[C@H](CCCCN)NC3=O)C(=O)N[C@@H](CCCNC(=N)N)C(=O)N[C@@H](C)C(=O)N[C@@H]([C@@H](C)O)C(=O)N2)NC(=O)[C@H](CCCNC(=N)N)NC(=O)[C@H](CO)NC(=O)[C@H](CCCCN)NC(=O)[C@@H]2CCCN2C(=O)[C@H]([C@@H](C)CC)NC(=O)[C@H]([C@@H](C)O)NC(=O)[C@H](CC(=O)O)NC1=O | 0.186 | 0.173 | 0.308 |
| CC[C@H](C)[C@@H]1NC(=O)[C@@H](NC(=O)[C@H](CO)NC(=O)[C@@H](N)CCCNC(=N)N)CSSC[C@@H](C(=O)O)NC(=O)[C@H]([C@@H](C)O)NC(=O)CNC(=O)[C@@H]2CSSC[C@@H]3NC(=O)[C@H](CCC(N)=O)NC(=O)[C@H](Cc4ccccc4)NC(=O)[C@H](C)NC(=O)[C@H]([C@@H](C)O)NC(=O)[C@H](CSSC[C@H](NC(=O)[C@H](Cc4ccccc4)NC(=O)[C@H](CO)NC(=O)[C@H](CC(C)C)NC(=O)[C@H](CCCNC(=N)N)NC(=O)[C@H](Cc4ccc(O)cc4)NC(=O)[C@H](CCCCN)NC(=O)[C@H](CCSC)NC(=O)[C@H](CO)NC(=O)[C@H](Cc4cnc[nH]4)NC(=O)[C@H](CCCCN)NC3=O)C(=O)N[C@@H](CCCNC(=N)N)C(=O)N[C@@H](CCCCN)C(=O)N[C@@H]([C@@H](C)O)C(=O)N2)NC(=O)[C@H](CCCNC(=N)N)NC(=O)[C@H](CCCNC(=N)N)NC(=O)[C@H](CCCCN)NC(=O)[C@@H]2CCCN2C(=O)[C@H]([C@@H](C)CC)NC(=O)[C@H]([C@@H](C)O)NC(=O)[C@H](CC(=O)O)NC1=O | 0.072 | 0.073 | 0.129 |
| CC[C@H](C)[C@@H]1NC(=O)[C@@H](NC(=O)[C@H](CO)NC(=O)[C@@H](N)CCCNC(=N)N)CSSC[C@@H](C(=O)O)NC(=O)[C@H]([C@@H](C)O)NC(=O)CNC(=O)[C@@H]2CSSC[C@@H]3NC(=O)[C@H](CCC(=O)O)NC(=O)[C@H](Cc4ccccc4)NC(=O)[C@H](C)NC(=O)[C@H]([C@@H](C)O)NC(=O)[C@H](CSSC[C@H](NC(=O)[C@H](Cc4ccccc4)NC(=O)[C@H](CO)NC(=O)[C@H](CC(C)C)NC(=O)[C@H](CCCNC(=N)N)NC(=O)[C@H](Cc4ccc(O)cc4)NC(=O)[C@H](CCCCN)NC(=O)[C@H](CCSC)NC(=O)[C@H](CO)NC(=O)[C@H](Cc4cnc[nH]4)NC(=O)[C@H](CCCCN)NC3=O)C(=O)N[C@@H](CCCNC(=N)N)C(=O)N[C@@H](CCCCN)C(=O)N[C@@H]([C@@H](C)O)C(=O)N2)NC(=O)[C@H](CCCNC(=N)N)NC(=O)[C@H](CO)NC(=O)[C@H](CCCCN)NC(=O)[C@@H]2CCCN2C(=O)[C@H]([C@@H](C)CC)NC(=O)[C@H]([C@@H](C)O)NC(=O)[C@H](CC(=O)O)NC1=O | 0.352 | 0.197 | 0.373 |
| CC[C@H](C)[C@@H]1NC(=O)[C@@H](NC(=O)[C@H](CO)NC(=O)[C@@H](N)CCCNC(=N)N)CSSC[C@@H](C(=O)O)NC(=O)[C@H]([C@@H](C)O)NC(=O)CNC(=O)[C@@H]2CSSC[C@@H]3NC(=O)[C@H](CCC(N)=O)NC(=O)[C@H](Cc4ccccc4)NC(=O)[C@H](C)NC(=O)[C@H]([C@@H](C)O)NC(=O)[C@H](CSSC[C@H](NC(=O)[C@H](Cc4ccccc4)NC(=O)[C@H](CO)NC(=O)[C@H](CC(C)C)NC(=O)[C@H](CCCNC(=N)N)NC(=O)[C@H](Cc4ccc(O)cc4)NC(=O)[C@H](CCCCN)NC(=O)[C@H](CCCCN)NC(=O)[C@H](CO)NC(=O)[C@H](Cc4cnc[nH]4)NC(=O)[C@H](CCCCN)NC3=O)C(=O)N[C@@H](CCCNC(=N)N)C(=O)N[C@@H](CCCCN)C(=O)N[C@@H]([C@@H](C)O)C(=O)N2)NC(=O)[C@H](CCCNC(=N)N)NC(=O)[C@H](CO)NC(=O)[C@H](CCCCN)NC(=O)[C@@H]2CCCN2C(=O)[C@H]([C@@H](C)CC)NC(=O)[C@H]([C@@H](C)O)NC(=O)[C@H](CC(=O)O)NC1=O | 3.59 | 0.798 | 4.82 |
